Data: patent publication US20130109758A1, “BISPHENOL DERIVATIVE THERAPEUTICS AND METHODS FOR THEIR USE” (THE UNIVERSITY OF BRITISH COLUMBIA, priority 2010, published 2013)

Target: T1, androgen receptor (AR) (Homo sapiens, UniProt P10275, T878A)
T1 construct: LNCaP cells express endogenous AR and secrete prostate-specific antigen (PSA); endogenous in cells; host or cells: LNCaP human prostate cancer cells
T1 sequence (P10275 1-920 T878A): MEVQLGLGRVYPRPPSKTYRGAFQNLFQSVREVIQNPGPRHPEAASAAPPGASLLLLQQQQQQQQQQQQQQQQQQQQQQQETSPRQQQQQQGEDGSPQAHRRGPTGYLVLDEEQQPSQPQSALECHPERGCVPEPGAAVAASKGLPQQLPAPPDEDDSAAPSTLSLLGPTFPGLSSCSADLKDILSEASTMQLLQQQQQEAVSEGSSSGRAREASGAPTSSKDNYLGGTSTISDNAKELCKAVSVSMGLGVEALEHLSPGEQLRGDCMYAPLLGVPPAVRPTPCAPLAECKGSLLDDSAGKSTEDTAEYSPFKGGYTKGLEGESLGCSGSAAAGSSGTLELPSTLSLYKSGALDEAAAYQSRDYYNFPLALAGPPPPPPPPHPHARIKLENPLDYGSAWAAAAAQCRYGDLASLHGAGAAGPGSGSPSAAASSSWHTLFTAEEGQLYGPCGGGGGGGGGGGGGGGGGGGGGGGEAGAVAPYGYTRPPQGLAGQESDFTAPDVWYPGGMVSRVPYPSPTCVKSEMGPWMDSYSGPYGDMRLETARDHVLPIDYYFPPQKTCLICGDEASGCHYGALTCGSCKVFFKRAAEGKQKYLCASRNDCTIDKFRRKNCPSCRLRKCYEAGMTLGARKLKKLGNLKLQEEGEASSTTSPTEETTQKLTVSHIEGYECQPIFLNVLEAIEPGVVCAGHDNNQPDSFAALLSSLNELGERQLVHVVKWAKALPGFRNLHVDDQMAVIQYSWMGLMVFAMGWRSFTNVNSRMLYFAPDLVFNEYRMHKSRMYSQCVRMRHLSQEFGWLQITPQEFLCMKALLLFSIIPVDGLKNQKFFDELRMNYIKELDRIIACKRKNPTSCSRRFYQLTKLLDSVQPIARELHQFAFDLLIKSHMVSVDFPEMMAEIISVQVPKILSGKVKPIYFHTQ
Assay: LNCaP PSA (6.1 kb)-luciferase assay (R1881-induced)
Format: cell-based
Details: for EXPERIMENTAL DATA (activity in the LNCaP PSA (6.1 kb)-luciferase assay): LNCaP cells transfected with PSA (6.1 kb)-luciferase, 1 h pre-treatment with compound, R1881 1 nM, 48 h; for androgen receptor inhibitory activity: LNCaP PSA (6.1 kb)-luciferase assay, dose response against DMSO and EPI-001 controls (FIGS. 1-6)
Description: LNCaP cells were employed initially for all experiments because they are well-differentiated human prostate cancer cells in which ligand-independent activation of the AR by FSK has been characterized (Nazareth et al 1996 J. Biol. Chem. 271, 19900-19907; and Sadar 1999 J. Biol. Chem. 274, 7777-7783). LNCaP cells express endogenous AR and secrete prostate-specific antigen (PSA) (Horoszewicz et al 1983 Cancer Res. 43, 1809-1818). LNCaP cells can be grown either as monolayers in cell culture or as tumors in the well-characterized xenograft model that progresses to androgen independence in castrated hosts (Sato et al 1996 J. Steroid Biochem. Mol. Biol. 58, 139-146; Gleave et al 1991 Cancer Res. 51, 3753-3761; Sato et al 1997 Cancer Res. 57, 1584-1589; and Sadar et al 2002 Mol. Cancer. Ther. 1(8), 629-637). […] Small molecules that specifically target the AR-NTD should have no effect on PC3 cells. This means that they should not alter the proliferation of PC3 cells if they specifically block the AR to mediate their inhibitory effects. R1881 was employed since it is stable and avoids problems associated with the labile physiological ligand dihydrotestosterone (DHT). Reporter specificity may be determined using several alternative reporter gene constructs. Some well characterized ARE-driven reporter gene constructs that have been used extensively are the PSA (6.1 kb) enhance/promoter which contains several AREs and is highly inducible by androgens as well as by FSK (Ueda et al 2002 A J. Biol. Chem. 277, 7076-7085) and the ARR3-thymidine kinase (tk)-luciferase, which is an artificial reporter construct that contains three tandem repeats of the rat probasin ARE1 and ARE2 regions upstream of a luciferase reporter (Snoek et al 1996 J. Steroid Biochem. Mol. Biol. 59, 243-250).
LNCaP cells were transiently cotransfected with PSA (6.1 kb)-luciferase (0.25 μg/well) in 24-well plates for 24 h prior to pre-treatment with compounds for 1 hour before the addition of synthetic androgen, R1881 (1 nM) to induce PSA production or vehicle. The total amount of plasmid DNA transfected was normalized to 0.75 μg/well by the addition of the empty vector. After 48 h of incubation with R1881, the cells were harvested, and relative luciferase activity was determined. Test compounds were added to the cells at various concentrations and activity for each treatment was normalized to the predicted maximal activity induction (in the absence of test compounds, vehicle only). Plotting of sigmoidal curves (Boltzmann Function) and IC50 calculations were done using OriginPro 8.1 Software (Northampton, Mass., USA).
Using the LNCaP PSA (6.1 kb)-luciferase assay described above, various compounds described herein were tested against DMSO and EPI-001 controls. In FIG. 1, a comparison is made between EPI-100, EPI-101, EPI-102 and DMSO from 1 to 35 μM. […] In FIG. 3A, EPI-107 is compared to DMSO and EPI-001 at 2.5 μM to 10 μM. In FIG. 3B, EPI-108 is compared to DMSO at 0.5 μM to 35 μM. In FIG. 4A, EPI-114 is compared to DMSO and EPI-001 at 5 μM and 10 μM. In FIG. 4B, EPI-116 is compared to DMSO and EPI-001 at 1 μM to 30 μM.

## O=C(c1ccc(OCCCCl)cc1)c1ccc(OCCCCl)cc1 [drawing 511]
  EXPERIMENTAL DATA (activity in the LNCaP PSA (6.1 kb)-luciferase assay): Active

## O=C(c1ccc(O)cc1)c1ccc(OCCCCl)cc1 [EPI-117]
  androgen receptor inhibitory activity: showed androgen receptor inhibitory activity

## C#CCOc1ccc(C(=O)c2ccc(OCCCBr)cc2)cc1 [drawing 507]
  EXPERIMENTAL DATA (activity in the LNCaP PSA (6.1 kb)-luciferase assay): Active

## OC(CCl)COc1ccc(-c2ccc(OCC(O)CCl)cc2)cc1 (centres unmarked) [drawing 515]
  EXPERIMENTAL DATA (activity in the LNCaP PSA (6.1 kb)-luciferase assay): Active

## C#CCOc1ccc(C(=O)c2ccc(OCCCBr)cc2)cc1 [EPI-108]
  androgen receptor inhibitory activity: showed androgen receptor inhibitory activity

## C#CCOc1ccc(C(=O)c2ccc(OCCCCl)cc2)cc1 [EPI-107]
  androgen receptor inhibitory activity: showed androgen receptor inhibitory activity

## OC(CCl)COc1ccc(Sc2ccc(OCC(O)CCl)cc2)cc1 (centres unmarked) [drawing 514]
  EXPERIMENTAL DATA (activity in the LNCaP PSA (6.1 kb)-luciferase assay): Active

## C#CCOc1ccc(C(=O)c2ccc(OCC(O)CO)cc2)cc1 (stereo not drawn) [EPI-111]
  androgen receptor inhibitory activity: showed androgen receptor inhibitory activity

## O=C(c1ccc(OCCCCl)cc1)c1ccc(OCCCCl)cc1 [EPI-116]
  androgen receptor inhibitory activity: showed androgen receptor inhibitory activity

## C#CCOc1ccc(C(=O)c2ccc(O)cc2)cc1 [EPI-106]
  androgen receptor inhibitory activity: showed androgen receptor inhibitory activity

## OC(CCl)COc1ccc(Oc2ccc(OCC(O)CCl)cc2)cc1 (stereo not drawn) [EPI-300]
  androgen receptor inhibitory activity: showed androgen receptor inhibitory activity

## C#CCOc1ccc(C(=O)c2ccc(OCC(O)CCl)cc2)cc1 (centres unmarked)
  EXPERIMENTAL DATA (activity in the LNCaP PSA (6.1 kb)-luciferase assay): Active

## C#CCOc1ccc(C(=O)c2ccc(OCC#C)cc2)cc1 [drawing 508]
  EXPERIMENTAL DATA (activity in the LNCaP PSA (6.1 kb)-luciferase assay): Active

## C#CCOc1ccc(C(=O)c2ccc(OC[C@H](O)CCl)cc2)cc1
  EXPERIMENTAL DATA (activity in the LNCaP PSA (6.1 kb)-luciferase assay): Active

## C#CCOc1ccc(C(=O)c2ccc(OCC(O)CO)cc2)cc1 (centres unmarked) [drawing 509]
  EXPERIMENTAL DATA (activity in the LNCaP PSA (6.1 kb)-luciferase assay): Active

## OC(CCl)COc1ccc(-c2ccc(OCC(O)CCl)cc2)cc1 (stereo not drawn) [EPI-3000]
  androgen receptor inhibitory activity: showed androgen receptor inhibitory activity

## C#CCOc1ccc(C(=O)c2ccc(OCCCCl)cc2)cc1 [drawing 506]
  EXPERIMENTAL DATA (activity in the LNCaP PSA (6.1 kb)-luciferase assay): Active

## C#CCOc1ccc(C(=O)c2ccc(OCC#C)cc2)cc1 [EPI-109]
  androgen receptor inhibitory activity: showed androgen receptor inhibitory activity

## O=C(c1ccc(O)cc1)c1ccc(OCCCCl)cc1 [drawing 512]
  EXPERIMENTAL DATA (activity in the LNCaP PSA (6.1 kb)-luciferase assay): Active

## OC(CCl)COc1ccc(Sc2ccc(OCC(O)CCl)cc2)cc1 (stereo not drawn) [EPI-400]
  androgen receptor inhibitory activity: showed androgen receptor inhibitory activity

## O=C(c1ccc(OCC(O)CCl)cc1)c1ccc(OCC(O)CCl)cc1 (centres unmarked) [drawing 510]
  EXPERIMENTAL DATA (activity in the LNCaP PSA (6.1 kb)-luciferase assay): Active

## OC(CCl)COc1ccc(Oc2ccc(OCC(O)CCl)cc2)cc1 (centres unmarked) [drawing 513]
  EXPERIMENTAL DATA (activity in the LNCaP PSA (6.1 kb)-luciferase assay): Active

## C#CCOc1ccc(C(=O)c2ccc(O)cc2)cc1 [drawing 505]
  EXPERIMENTAL DATA (activity in the LNCaP PSA (6.1 kb)-luciferase assay): Active

## O=C(c1ccc(OCC(O)CCl)cc1)c1ccc(OCC(O)CCl)cc1 (stereo not drawn) [EPI-114]
  androgen receptor inhibitory activity: showed androgen receptor inhibitory activity

## C#CCOc1ccc(C(=O)c2ccc(OC[C@@H](O)CCl)cc2)cc1
  EXPERIMENTAL DATA (activity in the LNCaP PSA (6.1 kb)-luciferase assay): Active

## CC(C)(c1ccc(OCC(O)CO)cc1)c1ccc(OCC(O)CCl)cc1 (centres unmarked) [reference compound]
  EXPERIMENTAL DATA (activity in the LNCaP PSA (6.1 kb)-luciferase assay): Active (positive control)
